These compounds were tested on rat small-intestinal brush border membrane vesicles (assay: Inhibitory effect on 33PO4 uptake into rat small-intestinal brush border membrane vesicles (rapid filtration method)). Conditions: 1 µM test compound; 33PO4 uptake into rat small-intestinal BBMVs, 60 seconds.
Assay type: biochemical, Wistar female rat
Description: The ^33PO4 transport activity of the small-intestinal BBMVs was determined by the rapid filtration method. […] Then, ice-cold buffer C (110 mM NaCl, 1 mM KH2PO4, and 10 mM HEPES (pH 7.5)) was added to each reaction mixture, which was immediately suction-filtered through a Millipore filter. The filter was washed with buffer C, and each sample was then dissolved in a liquid scintillator. The amount of ^33PO4 uptake into BBMVs was measured using a liquid scintillation counter. […]

Row | SMILES | Rate of uptake inhibition (%) (1 µM)
1 | C[C@]12CCCN1N(Cc1c(F)cc(CCCCCCCOC[C@H](O)[C@@H](O)CO)cc1F)C(=O)C(C(=O)Nc1ccc(C(F)(F)F)cc1-c1ccc(C(F)(F)F)nc1)=C2O [Example 125, (4aR)-1-[[2,6-Difluoro-4-[7-[(2S,3S)-2,3,4-trihydroxybutoxy]heptyl]phenyl]methyl]-4-hydroxy-4a-methvl-2-oxo-N-[4-(trifluoromethyl)-2-[6-(trifluoromethyl)pyridin-3-yl]phenyl]-6,7-dihydro-5H-pyrrolo[1,2-b]pyridazine-3-carboxamide] | 76
2 | C#Cc1ccc(CN2C(=O)C(C(=O)Nc3ccc(C(F)(F)F)cc3-c3cc(C(F)(F)F)ncn3)=C(O)[C@@]3(C)CCCN23)c(F)c1F [Example 126, (4aR)-1-[(4-Ethynyl-2,3-difluorophenyl)methyl]-4-hydroxy-4a-methyl-2-oxo-N-[4-(trifluoromethyl)-2-[6-(trifluoromethyl)pyrimidin-4-yl]phenyl]-6,7-dihydro-5H-pyrrolo[1.2-b]pyridazine-3-carboxamide] | 71
3 | COc1cccc(-c2cc(C(F)(F)F)ccc2NC(=O)C2=C(O)[C@@]3(C)CCCN3N(Cc3ccc(C#CCOCCCO)c(F)c3F)C2=O)c1OC [Example 127] | 95
4 | C[C@]12CCCN1N(Cc1ccc(C#CCOCCCCO)c(F)c1F)C(=O)C(C(=O)Nc1ccc(C(F)(F)F)cc1-c1ccc(C(F)(F)F)nc1)=C2O [Example 128] | 72
5 | C[C@]12CCCN1N(Cc1c(F)cc(C#CC3(O)CCCC3)cc1F)C(=O)C(C(=O)Nc1ccc(C(F)(F)F)cc1-c1ccc(C(F)(F)F)nc1)=C2O [Example 130] | 72
6 | C[C@]12CCCN1N(Cc1ccc(C#CCN3CCCC3=O)c(F)c1F)C(=O)C(C(=O)Nc1ccc(Br)c(F)c1)=C2O [Example 131] | 87
7 | C[C@]12CCCN1N(Cc1c(F)cc(C#CCN3CCOCC3)cc1F)C(=O)C(C(=O)Nc1ccc(C(F)(F)F)cc1-c1ccc(C(F)(F)F)nc1)=C2O [Example 132] | 71
8 | COc1cccc(-c2cc(C(F)(F)F)ccc2NC(=O)C2=C(O)[C@@]3(C)CCCN3N(Cc3ccc(C#CCCCCO)c(F)c3F)C2=O)c1OC [Example 135] | 90
9 | COc1cccc(-c2cc(C(F)(F)F)ccc2NC(=O)C2=C(O)[C@@]3(C)CCCN3N(Cc3ccc(C#CCOCCOCCOCCO)c(F)c3F)C2=O)c1OC [Example 136] | 80
10 | COc1cccc(-c2cc(C(F)(F)F)ccc2NC(=O)C2=C(O)[C@@]3(C)CCCN3N(Cc3ccc(C#CCOCCO)c(F)c3F)C2=O)c1OC [Example 137] | 92
11 | COc1cccc(-c2cc(C(F)(F)F)ccc2NC(=O)C2=C(O)[C@@]3(C)CCCN3N(Cc3ccc(C#CCCCO)c(F)c3F)C2=O)c1OC [Example 138] | 93
12 | COc1cccc(-c2cc(C(F)(F)F)ccc2NC(=O)C2=C(O)[C@@]3(C)CCCN3N(Cc3ccc(C#CCOCCOCCO)c(F)c3F)C2=O)c1OC [Example 139] | 88
13 | C[C@]12CCCN1N(Cc1ccc(CCCOCCCO)c(F)c1F)C(=O)C(C(=O)Nc1ccc(C(F)(F)F)cc1-c1ccc(C(F)(F)F)nc1)=C2O [Example 141] | 83
14 | COc1cccc(-c2cc(C(F)(F)F)ccc2NC(=O)C2=C(O)[C@@]3(C)CCCN3N(Cc3ccc(CCCOCCOCCOCCO)c(F)c3F)C2=O)c1OC [Example 142] | 76
15 | C[C@]12CCCN1N(Cc1c(F)cc(C#CCCCCOC[C@H](O)CO)cc1F)C(=O)C(C(=O)Nc1ccc(C(F)(F)F)cc1-c1ccc(C(F)(F)F)nc1)=C2O.[Na+] [Example 143] | 71
16 | C[C@]12CCCN1N(Cc1c(F)cc(C#CCCOC[C@H](O)CO)cc1F)C(=O)C(C(=O)Nc1ccc(C(F)(F)F)cc1-c1ccc(C(F)(F)F)nc1)=C2O [Example 145] | 78
17 | C[C@]12CCCN1N(Cc1c(Cl)cc(OCCN3CCOCC3)cc1Cl)C(=O)C(C(=O)Nc1cnc(C(F)(F)F)nc1-c1ccc(C(F)(F)F)nc1)=C2O.Cl [Example 146, (4aR)-1-[[2,6-Dichloro-4-(2-morpholin-4-ylethoxy)phenyl]methyl]-4-hydroxy-4a-methyl-2-oxo-N-[2-(trifluoromethyl)-4-[6-(trifluoromethyl)pyridin-3-yl]pyrimidin-5-yl]-6,7-dihydro-5H-pyrrolo[1,2-b]pyridazine-3-carboxamide hydrochloride] | 71

Row | SMILES | Rate of uptake inhibition (%) (1 µM)
18 | C[C@]12CCCN1N(Cc1c(Cl)cc(OCCN3CCOCC3)cc1Cl)C(=O)C(C(=O)Nc1ccc(C(F)(F)F)nc1-c1ccc(C(F)(F)F)nc1)=C2O.Cl [Example 148, (4aR)-1-[[2,6-Dichloro-4-(2-morpholin-4-ylethoxy)phenyl]methyl]-4-hydroxy-4a-methyl-2-oxo-N-[6-(trifluoromethyl)-2-[6-(trifluoromethyl)pyridin-3-yl]pyridin-3-yl]-6,7-dihydro-5H-pyrrolo[1,2-b]pyridazine-3-carboxamide hydrochloride] | 75
19 | C[C@]12CCCN1N(Cc1ccc(OCCN3CCOCC3)c(Cl)c1)C(=O)C(C(=O)Nc1ccc(C(F)(F)F)cc1-c1ccc(C(F)(F)F)nc1)=C2O [Example 149, (4aR)-1-[[3-Chloro-4-(2-morpholin-4-ylethoxy)phenyl]methyl]-4-hydroxy-4a-methyl-2-oxo-N-[4-(trifluoromethyl)-2-[6-(trifluoromethyl)pyridin-3-yl]phenyl]-6,7-dihydro-5H-pyrrolo[1,2-b]pyridazine-3-carboxamide] | 80
20 | COC(=O)COc1ccc(CN2C(=O)C(C(=O)Nc3ccc(C(F)(F)F)cc3-c3ccc(C(F)(F)F)nc3)=C(O)[C@@]3(C)CCCN23)c(F)c1F [Example 150, Methyl 2-[4-[[(4aR)-4-Hydroxy-4a-methyl-2-oxo-3-[[4-(trifluoromethyl)-2-[6-(trifluoromethyl)pyridin-3-yl]phenyl]carbamoyl]-6,7-dihydro-5H-pyrrolo[1,2-b]pyridazin-1-yl]methyl]-2,3-difluorophenoxy] acetate] | 87
21 | COc1cccc(-c2cc(C(F)(F)F)ccc2NC(=O)C2=C(O)[C@@]3(C)CCCN3N(Cc3ccc(OCc4ccncc4)c(F)c3F)C2=O)c1OC [Example 151, (4aR)-1-[[2,3-Difluoro-4-(pyridin-4-ylmethoxy)phenyl]methyl]-N-[2-(2,3-dimethoxyphenyl)-4-(trifluoromethyl)phenyl]-4-hydroxy-4a-methyl-2-oxo-6,7-dihydro-5H-pyrrolo[1,2-b]pyridazine-3-carboxamide] | 92
22 | C[C@]12CCCN1N(Cc1c(F)cc(OCCCCCOC[C@@H](O)CO)cc1F)C(=O)C(C(=O)Nc1ccc(C(F)(F)F)cc1-c1ccc(C(F)(F)F)nc1)=C2O [Example 153] | 73
23 | C[C@]12CCCN1N(Cc1c(F)cc(OCCCCCCOC[C@@H](O)CO)cc1F)C(=O)C(C(=O)Nc1ccc(C(F)(F)F)cc1-c1ccc(C(F)(F)F)nc1)=C2O [Example 154] | 73
24 | C[C@]12CCCN1N(Cc1c(F)cc(OCCCCCCOC[C@H](O)CO)cc1F)C(=O)C(C(=O)Nc1ccc(C(F)(F)F)cc1-c1ccc(C(F)(F)F)nc1)=C2O [Example 155] | 77
25 | COc1cccc(-c2cc(C(F)(F)F)ccc2NC(=O)C2=C(O)[C@@]3(C)CCCN3N(Cc3ccc(OC4CCOCC4)c(F)c3F)C2=O)c1OC [Example 158] | 84
26 | COc1cccc(-c2cc(C(F)(F)F)ccc2NC(=O)C2=C(O)[C@@]3(C)CCCN3N(Cc3ccc(OC[C@H]4CCCO4)c(F)c3F)C2=O)c1OC [Example 159] | 89
27 | C[C@]12CCCN1N(Cc1ccc(OC[C@H]3CCCO3)c(F)c1F)C(=O)C(C(=O)Nc1ccc(C(F)(F)F)cc1-c1ccc(C(F)(F)F)nc1)=C2O [Example 160] | 77
28 | C[C@]12CCCN1N(Cc1ccc(OCCCCCO)c(F)c1F)C(=O)C(C(=O)Nc1ccc(C(F)(F)F)cc1-c1cc(C(F)(F)F)ncn1)=C2O [Example 162] | 73
29 | C[C@]12CCCN1N(Cc1ccc(SCCN3CCOCC3)c(F)c1F)C(=O)C(C(=O)Nc1ccc(C(F)(F)F)cc1-c1ccc(C(F)(F)F)nc1)=C2O.Cl [Example 163, (4aR)-1-[[2,3-Difluoro-4-(2-morpholin-4-ylethylsulfanyl)phenyl]methyl]-4-hydroxy-4a-methyl-2-oxo-N-(4-(trifluoromethyl)-2-[6-(trifluoromethyl)pyridin-3-yl]phenyl)-6,7-dihydro-5H-pyrrolo[1,2-b]pyridazine-3-carboxamide hydrochloride] | 79
30 | COC(=O)c1cc(F)c(CN2C(=O)C(C(=O)Nc3ccc(C(F)(F)F)cc3-c3ccc(C(F)(F)F)nc3)=C(O)[C@@]3(C)CCCN23)c(F)c1 [Example 165, Methyl 4-[[(4aR)-4-Hydroxy-4a-methyl-2-oxo-3-[[4-(trifluoromethyl)-2-[6-(trifluoromethyl)pyridin-3-yl]phenyl]carbamoyl]-6,7-dihydro-5H-pyrrolo[1,2-b]pyridazin-1-yl]methyl]-3,5-difluorobenzoate] | 75
31 | C[C@]12CCCN1N(Cc1ccc(Br)cc1F)C(=O)C(C(=O)Nc1cc(F)c(Br)c(F)c1)=C2O [Example 166, (4aR)-N-(4-Bromo-3,5-difluorophenyl)-1-[(4-bromo-2-fluorophenyl)methyl]-4-hydroxy-4a-methyl-2-oxo-6,7-dihydro-5H-pyrrolo[1,2-b]pyridazine-3-carboxamide] | 73
32 | C[C@]12CCCN1N(Cc1cccc(OC(F)F)c1)C(=O)C(C(=O)Nc1ccc(C(F)(F)F)cc1-c1ccc(C(F)(F)F)nc1)=C2O [Example 167] | 73
33 | C[C@]12CCCN1N(Cc1ccccc1Cl)C(=O)C(C(=O)Nc1ccc(C(F)(F)F)cc1-c1ccc(C(F)(F)F)nc1)=C2O [Example 168] | 72

Source: patent publication EP2975030B1, “DIHYDROPYRIDAZINE-3,5-DIONE DERIVATIVE” (Chugai Seiyaku Kabushiki Kaisha, priority 2013, dated 2014)
